Assays:
[1] = test system: ethanol/HCl-induced gastric lesions; assay: Ethanol/HCl-induced gastric lesion (ulcer) model in mice; format: in vivo; details: for inhibition in vivo at 25 mg/kg: Mus musculus, po, read-out: Gastroprotective effect: % Lesion reduction; for Gastroprotective effect: Lesion index: mean ± SD, sum of lesion lengths
Protocol: The gastroprotective activity of the compounds was determined in the ethanol/HCl-induced lesion model in mice. The purity of the tested compounds was higher than 95% by NMR analysis. Male Swiss albino mice weighing 30 ± 3 g were used. Animals were fed on certified Champion diet with free access to water under standard conditions of 12 h dark-light period, 50% relative humidity and 22 °C room temperature. Mice were randomly distributed into groups of eight animals each and fasted for 24 h with free access to water previous to the experiment. Fasting prior to ulcerogenic assays was used because 0.2 mL of the reference antisecretory drug lansoprazole (2-[[[3-methyl-4-(2,2,2-trifluroethoxy)-2-pyridyl]methyl]sulfinyl]benzimidazole) and the amides were administered orally. To keep the animal number to a minimum, dose-response studies were performed with the leucine derivatives 13 and 18 to set the conditions for single-dose comparison of gastroprotective effect. For the selected parent compounds, three doses were used: 25, 50 and 100 mg/kg. Fifty min after oral administration of the compounds, lansoprazole (20 mg/kg) or the vehicle (12% Tween 80, 10 mL/kg), all groups were orally treated with 0.2 mL of a solution containing 60% ethanol/0.3 M HCl (ethanol/HCl) for gastric lesion induction. Animals were sacrificed by cervical dislocation 1 h after the administration of ethanol/HCl, and the stomachs excised and inflated by injection of 5% formalin (1 mL). The ulcerated stomachs were fixed in 5% formalin for 30 min and opened along the greater curvature. The length (mm) of each lesion was measured, and the lesion index expressed as the sum of the length of all lesions. For comparison purposes, the products 1-5, 7-12, 14-16, 19 and 20 were assessed at a single oral dose of 25 mg/kg. The protocols were approved by the Universidad de Talca Institutional Animal Care and Use Committee, which follows the recommendations of the Canadian Council on Animal Care. Tween 80 and lansoprazole (> 98% purity by HPLC) were purchased from Sigma Chemical Co.
Results were expressed as the mean ± SD. In all experiments, statistical differences between several treatments and their respective control were determined by one-way analysis of variance (ANOVA) and when the F value was significant, post hoc differences were determined by the Dunnett's multiple comparison test. The level of significance was set at P < 0.05. All statistical analyses were performed using the software Statistica 5.1 (StatSoft, Inc.) and Statistical Package S-Plus 2000.

[2] = Cytotoxicity, neutral red uptake assay, MRC-5; format: cell-based; details: human, MRC-5 normal lung fibroblasts, confluent monolayers, confluent cultures, 0-1000 µM, mean ± SD
Protocol: (§1) Human normal lung fibroblasts MRC-5 (ATCC CCL-171) and Hep G2 cells (ATCC HB-8065) were grown as monolayers in minimum essential Eagle´s medium (MEM), with Earle's salts, 2.0 mM L-glutamine (Sigma Chemical Co.) and 2.0 g/L sodium bicarbonate (Sigma Chemical Co.), supplemented with 10% heat-inactivated fetal bovine serum (FBS), 100 IU/mL penicillin and 100 µg/mL streptomycin in a humidified incubator with 5% CO2 in air at 37 °C. Cell passage was maintained between 10 and 16 for MRC-5 and between 79 and 82 for Hep G2 cells. The medium was changed every 2 days. Culture media, antibiotics and FBS were obtained from Invitrogen Corp.
(§2) Confluent cultures of MRC-5, AGS and Hep G2 cells were treated with medium containing the compounds at concentrations ranging from 0 up to 1000 µM. The products were first dissolved in DMSO and then in the corresponding culture medium supplemented with 2% FBS. The final content of DMSO in the test medium and controls was 1%. Cells were exposed for 24 h to the assayed compounds. Untreated cells served as controls. Each concentration was tested in quadruplicate together with the control and repeated three times in separate experiments. At the end of the incubation, the neutral red uptake (NRU) assay was carried out to determine cell viability. To calculate the IC50 values (concentration that produces a 50% inhibitory effect on the evaluated parameter) the results were transformed to percentage of controls and the IC50 value was graphically obtained from the dose-response curves.

[3] = Cytotoxicity, neutral red uptake assay, Hep G2; format: cell-based; details: human, Hep G2 cells, confluent monolayers, confluent cultures, 0-1000 µM, mean ± SD
Protocol: as §1, §2

[4] = Cytotoxicity, neutral red uptake assay, AGS; format: cell-based; details: human, AGS gastric adenocarcinoma cells, confluent monolayers, confluent cultures, 0-1000 µM, mean ± SD
Protocol: as §2, with “Human gastric adenocarcinoma cells AGS (ATCC CRL-1739) were grown as monolayers in Ham F-12 medium containing 1.0 mM L-glutamine and 1.5 g/L sodium bicarbonate, supplemented with 10% heat-inactivated FBS, 100 IU/mL penicillin and 100 µg/mL streptomycin in a humidified incubator with 5% CO2 in air at 37 °C. The cell passage was maintained between 42 and 48. The medium was changed every 2 days. Confluent” for “Confluent”

[5] = single oral dose 25 mg/kg, compared with untreated controls

Row | Structure (SMILES) | inhibition in vivo at 25 mg/kg [1, 5] | Gastroprotective effect: Lesion index ([1]; single oral dose 25 mg/kg) | IC50 at 24 h [2] | IC50 at 24 h [3] | IC50 at 24 h [4] | gastric lesion reduction at the higher doses ([1]; dose-response study, higher oral doses (50 and 100 mg/kg)) | Gastroprotective effect: % Lesion reduction ([1]; single oral dose 25 mg/kg, compared with untreated controls, 25 mg/kg) | Gastroprotective effect: Lesion index ([1]; single oral dose 25 mg/kg, 25 mg/kg)
1 | COC(=O)CNC(=O)C[C@H](C)CCC1=C(C)CCC2[C@@](C)(C(=O)O)CCC[C@]12C (some centres unmarked) [Compound 1, Labd-8(9)-en-15,19-dioic acid, 15-glycyl methyl ester amide] | 73.3% | 12.3 ± 7.6 mm | 447 ± 26 µM | 242 ± 13 µM | 189 ± 9 µM | – | – | –
2 | COC(=O)[C@@H](NC(=O)C[C@H](C)CCC1=C(C)CCC2[C@@](C)(C(=O)O)CCC[C@]12C)C(C)C (some centres unmarked) [Compound 2, Labd-8(9)-en-15,19-dioic acid, 15-valyl methyl ester amide] | 58.5% | 19.1 ± 8.3 mm | > 1000 µM | > 1000 µM | > 1000 µM | – | – | –
3 | COC(=O)[C@H](CC(C)C)NC(=O)C[C@H](C)CCC1=C(C)CCC2[C@@](C)(C(=O)O)CCC[C@]12C (some centres unmarked) [Compound 3, Labd-8(9)-en-15,19-dioic acid, 15-leucyl methyl ester amide] | 72.6% | 12.6 ± 6.8 mm | > 1000 µM | 806 ± 32 µM | 445 ± 27 µM | – | – | –
4 | COC(=O)[C@@H]1CCCN1C(=O)C[C@H](C)CCC1=C(C)CCC2[C@@](C)(C(=O)O)CCC[C@]12C (some centres unmarked) [Compound 4, Labd-8(9)-en-15,19-dioic acid, 15-prolyl methyl ester amide] | 70.9% | 13.4 ± 6.8 mm | 288 ± 11 µM | 321 ± 14 µM | 167 ± 7 µM | – | – | –
5 | COC(=O)[C@H](Cc1c[nH]c2ccccc12)NC(=O)C[C@H](C)CCC1=C(C)CCC2[C@@](C)(C(=O)O)CCC[C@]12C (some centres unmarked) [Compound 5, Labd-8(9)-en-15,19-dioic acid, 15-tryptophanyl methyl ester amide] | 25.4% | 34.3 ±12.0 mm | 260 ± 15 µM | 291 ± 11 µM | 149 ± 7 µM | – | – | –
6 | COC(=O)[C@@H]1CCCN1C(=O)[C@@]1(C)CCC[C@]2(C)C(CC[C@@H](C)CC(=O)O)=C(C)CCC12 (some centres unmarked) [Compound 7, Labd-8(9)-en-15,19-dioic acid, 19-prolyl methyl ester amide] | 53.9% | 21.2 ± 9.5 mm | 459 ± 32 µM | 364 ± 15 µM | 266 ± 16 µM | – | – | –
7 | COC(=O)CNC(=O)C[C@H](C)CCC1=C(C)CCC2[C@@](C)(C(=O)NCC(=O)OC)CCC[C@]12C (some centres unmarked) [Compound 8, Labd-8(9)-en-15,19-dioic acid, 15,19-diglycyl methyl ester amide] | 62% | 17.5 ± 9.9 mm | 890 ± 45 µM | 841 ± 42 µM | 592 ± 30 µM | – | – | –
8 | COC(=O)[C@@H]1CCCN1C(=O)C[C@H](C)CCC1=C(C)CCC2[C@@](C)(C(=O)N3CCC[C@H]3C(=O)OC)CCC[C@]12C (some centres unmarked) [Compound 9, Labd-8(9)-en-15,19-dioic acid, 15,19-diprolyl methyl ester amide] | 60% | 18.4 ± 11.3 mm | 119 ± 7 µM | 67 ± 3 µM | 82 ± 4 µM | – | – | –
9 | COC(=O)[C@H](Cc1c[nH]c2ccccc12)NC(=O)C[C@H](C)CCC1=C(C)CCC2[C@@](C)(C(=O)N[C@@H](Cc3c[nH]c4ccccc34)C(=O)OC)CCC[C@]12C (some centres unmarked) [Compound 10, Labd-8(9)-en-15,19-dioic acid, 15,19-ditryptophanyl methyl ester amide] | 61.7% | 17.6 ± 7.8 mm | > 1000 µM | > 1000 µM | > 1000 µM | – | – | –
10 | C=C1CCC2[C@](C)(CCC[C@]2(C)C(=O)O)[C@H]1CC[C@@H](C)CC(=O)NCC(=O)OC (some centres unmarked) [Compound 11, Labd-8(17)-en-15,19-dioic acid, 15-glycyl methyl ester amide] | 71.9% | 12.9 ± 8.1 mm | > 1000 µM | 541 ± 22 µM | 361 ± 18 µM | – | – | –
11 | C=C1CCC2[C@](C)(CCC[C@]2(C)C(=O)O)[C@H]1CC[C@@H](C)CC(=O)N[C@H](C(=O)OC)C(C)C (some centres unmarked) [Compound 12, Labd-8(17)-en-15,19-dioic acid, 15-valyl methyl ester amide] | 66.5% | 15.4 ± 8.8 mm | 380 ± 19 µM | 673 ± 34 µM | 309 ± 18 µM | – | – | –
12 | C=C1CCC2[C@](C)(CCC[C@]2(C)C(=O)O)[C@H]1CC[C@@H](C)CC(=O)N[C@@H](CC(C)C)C(=O)OC (some centres unmarked) [Compound 13, Labd-8(17)-en-15,19-dioic acid, 15-leucyl methyl ester amide] | ~65.6% | – | 449 ± 29 µM | 808 ± 48 µM | 308 ± 17 µM | 79-89% | 65.6% | 15.8 ± 6.2 mm
13 | C=C1CCC2[C@](C)(CCC[C@]2(C)C(=O)O)[C@H]1CC[C@@H](C)CC(=O)N1CCC[C@H]1C(=O)OC (some centres unmarked) [Compound 14, Labd-8(17)-en-15,19-dioic acid, 15-prolyl methyl ester amide] | 59.8% | 18.5 ± 11.8 mm | > 1000 µM | 894 ± 56 µM | 297 ± 14 µM | – | – | –
14 | C=C1CCC2[C@](C)(CCC[C@]2(C)C(=O)O)[C@H]1CC[C@@H](C)CC(=O)N[C@@H](Cc1c[nH]c2ccccc12)C(=O)OC (some centres unmarked) [Compound 15, Labd-8(17)-en-15,19-dioic acid, 15-tryptophanyl methyl ester amide] | 73.7% | 12.1 ± 4.7 mm | > 1000 µM | > 1000 µM | > 1000 µM | – | – | –
15 | C=C1CCC2[C@](C)(CCC[C@]2(C)C(=O)NCC(=O)OC)[C@H]1CC[C@@H](C)CC(=O)NCC(=O)OC (some centres unmarked) [Compound 16, Labd-8(17)-en-15,19-dioic acid, 15,19-diglycyl methyl ester amide] | 73.5% | 12.2 ± 6.9 mm | > 1000 µM | 529 ± 36 µM | 483 ± 29 µM | – | – | –
